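Values below derive from 48-hour exposures of cells grown in 96-well plates, with endpoints linearly interpolated between the two concentrations bracketing the appropriate inhibition level. GI50 is the concentration that inhibits growth by half.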 The source made the active and inactive calls. Cut-off read from the data, not from the text of the source: active = GI50 up to about 1.1 µM and inactive = higher.
Key:
Assay in all cases: NCI tumour cell line growth inhibition, 48 h
DU-145 = tested on: DU-145
MDA-MB-231 = tested on: MDA-MB-231
RPMI-8226 = tested on: RPMI-8226
ACHN = tested on: ACHN
HCT-116 = tested on: HCT-116
NCI-H460 = tested on: NCI-H460
T47D = tested on: T47D
IGROV-1 = tested on: IGROV-1
HT-29 = tested on: HT-29
U-251 = tested on: U-251
SF-539 = tested on: SF-539
SN12C = tested on: SN12C
RXF 393 = tested on: RXF 393
M14 = tested on: M14
HOP-62 = tested on: HOP-62
NCI-H522 = tested on: NCI-H522
SF-295 = tested on: SF-295
OVCAR-4 = tested on: OVCAR-4
SK-MEL-2 = tested on: SK-MEL-2

Measured: GI50

C=C(c1ccccc1)c1ccccc1-c1cc(-c2ccccc2)cc(-c2ccccc2)n1
inactive: DU-145 > 100 µM | MDA-MB-231 > 100 µM | RPMI-8226 58.1 µM | ACHN > 100 µM | HCT-116 65.8 µM | NCI-H460 > 100 µM | T47D 9.08 µM | IGROV-1 > 100 µM | HT-29 99.5 µM | U-251 > 100 µM | SF-539 > 100 µM | SN12C > 100 µM | RXF 393 > 100 µM | M14 > 100 µM | HOP-62 > 100 µM | NCI-H522 28.4 µM | SF-295 > 100 µM

CC1=CC(=O)CC(C)(C)C1/C=C/C(C)=C/C=C/C(C)=C/C=C/C=C(C)/C=C/C=C(C)/C=C/C1C(C)=CC(=O)CC1(C)C (stereo not drawn)
inactive: DU-145 > 100 µM | OVCAR-4 41.1 µM | MDA-MB-231 > 100 µM | RPMI-8226 25.2 µM | ACHN 30 µM | HCT-116 20.2 µM | NCI-H460 86.1 µM | T47D > 100 µM | SK-MEL-2 > 100 µM | IGROV-1 31.3 µM | HT-29 35.7 µM | U-251 38.7 µM | SF-539 45.5 µM | RXF 393 > 100 µM | M14 40.4 µM | HOP-62 42 µM | NCI-H522 20.8 µM | SF-295 92 µM

O=C1NC(=O)C23C(=O)NC(=O)C12C1C=CC3CC1 (stereo not drawn)
inactive: DU-145 > 10 µM | OVCAR-4 > 10 µM | MDA-MB-231 > 10 µM | RPMI-8226 > 10 µM | ACHN > 10 µM | HCT-116 > 10 µM | NCI-H460 > 10 µM | T47D > 10 µM | SK-MEL-2 > 10 µM | IGROV-1 > 10 µM | HT-29 > 10 µM | U-251 > 10 µM | SF-539 > 10 µM | SN12C > 10 µM | RXF 393 > 10 µM | M14 > 10 µM | HOP-62 > 10 µM | NCI-H522 > 10 µM | SF-295 > 10 µM

COCCOCc1nc(C#N)c(N)o1
inactive: DU-145 > 100 µM | OVCAR-4 > 100 µM | MDA-MB-231 > 100 µM | RPMI-8226 > 100 µM | ACHN > 100 µM | HCT-116 > 100 µM | NCI-H460 > 100 µM | T47D > 100 µM | SK-MEL-2 > 100 µM | IGROV-1 > 100 µM | HT-29 > 100 µM | U-251 > 100 µM | SF-539 > 100 µM | SN12C > 100 µM | RXF 393 > 100 µM | M14 > 100 µM | HOP-62 > 100 µM | NCI-H522 > 10 µM | SF-295 > 100 µM

CCOC(=O)C1C(c2ccc3c(c2)OCO3)c2c(n[nH]c2O)CC1(C)O (stereo not drawn)
inactive: DU-145 > 100 µM | OVCAR-4 > 100 µM | MDA-MB-231 > 100 µM | RPMI-8226 > 100 µM | ACHN > 100 µM | HCT-116 > 100 µM | NCI-H460 > 100 µM | T47D > 100 µM | SK-MEL-2 > 100 µM | IGROV-1 > 100 µM | HT-29 > 100 µM | U-251 > 100 µM | SF-539 > 100 µM | SN12C > 100 µM | M14 > 100 µM | HOP-62 > 100 µM | NCI-H522 > 100 µM | SF-295 > 100 µM

Cc1cccc(C)c1NC(=O)C(=O)CC(=O)CO
inactive: OVCAR-4 > 100 µM | RPMI-8226 > 100 µM | ACHN > 100 µM | HCT-116 > 100 µM | NCI-H460 > 100 µM | SK-MEL-2 > 100 µM | IGROV-1 > 100 µM | HT-29 > 100 µM | U-251 > 100 µM | SF-539 > 100 µM | SN12C > 100 µM | RXF 393 > 100 µM | M14 > 100 µM | HOP-62 > 100 µM | NCI-H522 > 100 µM | SF-295 > 100 µM

O=C1C(O)=C(Cl)C(=O)c2c(O)ccc(O)c21
inactive: DU-145 > 100 µM | OVCAR-4 > 100 µM | MDA-MB-231 > 100 µM | RPMI-8226 > 100 µM | HCT-116 > 100 µM | NCI-H460 > 100 µM | T47D > 100 µM | IGROV-1 > 100 µM | HT-29 > 100 µM | U-251 > 100 µM | SF-539 > 100 µM | RXF 393 > 100 µM | M14 > 100 µM | HOP-62 > 100 µM | SF-295 > 100 µM

Cc1ccc(NC(=O)CC(=O)N2N=C(N(CCC#N)c3cccc(C)c3)CC2c2ccccc2)cc1 (stereo not drawn)
inactive: OVCAR-4 > 100 µM | RPMI-8226 > 100 µM | ACHN > 100 µM | HCT-116 > 100 µM | NCI-H460 > 100 µM | SK-MEL-2 > 100 µM | IGROV-1 > 100 µM | HT-29 > 100 µM | U-251 > 100 µM | SF-539 > 100 µM | SN12C > 100 µM | RXF 393 > 100 µM | M14 > 100 µM | HOP-62 > 100 µM | NCI-H522 > 100 µM | SF-295 > 100 µM

From ChEMBL document CHEMBL1201862, “PubChem BioAssay data set” (2004)
